Assay [1] deals with Variant PPO Enzyme F420V (Amaranthus PPO2) (Amaranthus tuberculatus, UniProt Q0NZW9, F420V). It is filed as biochemical.
The target in assay [2] is Variant PPO Enzyme L397Q, F420M (Amaranthus PPO2) (Amaranthus tuberculatus, UniProt Q0NZW9, F420M/L397Q). It is filed as biochemical.
The target in assay [3] is Variant PPO Enzyme L397Q, F420V (Amaranthus PPO2) (Amaranthus tuberculatus, UniProt Q0NZW9, F420V/L397Q). In kind it is biochemical.
Assay [4] deals with Transgenic T2 Arabidopsis plants harboring PPO inhibitor tolerance trait. The assay can be described thus: Lab based germination assay in 48-well plates (Table i). In kind it is in vivo, Arabidopsis thaliana.
Assay [5] deals with Variant PPO Enzyme L397Q (Amaranthus PPO2) (Amaranthus tuberculatus, UniProt Q0NZW9, L397Q). In kind it is biochemical.
Sequence of Variant PPO Enzyme L397Q (Amaranthus PPO2) (Q0NZW9 1-534 L397Q): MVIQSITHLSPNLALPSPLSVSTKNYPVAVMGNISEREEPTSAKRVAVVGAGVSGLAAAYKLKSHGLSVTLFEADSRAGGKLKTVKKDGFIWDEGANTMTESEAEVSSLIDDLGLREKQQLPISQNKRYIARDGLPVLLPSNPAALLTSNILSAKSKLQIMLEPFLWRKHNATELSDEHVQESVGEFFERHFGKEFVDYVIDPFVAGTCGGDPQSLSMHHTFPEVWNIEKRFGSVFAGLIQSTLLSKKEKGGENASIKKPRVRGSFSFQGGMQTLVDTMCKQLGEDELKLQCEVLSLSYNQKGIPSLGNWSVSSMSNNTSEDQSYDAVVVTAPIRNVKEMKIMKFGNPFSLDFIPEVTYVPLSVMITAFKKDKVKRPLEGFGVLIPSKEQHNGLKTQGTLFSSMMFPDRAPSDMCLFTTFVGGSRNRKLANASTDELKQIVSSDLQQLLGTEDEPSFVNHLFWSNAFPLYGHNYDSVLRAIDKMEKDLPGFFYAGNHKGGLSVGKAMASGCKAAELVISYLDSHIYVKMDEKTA
The target in assay [6] is Variant PPO Enzyme R128A, F420V (Amaranthus PPO2) (Amaranthus tuberculatus, UniProt Q0NZW9, F420V/R128A). Briefly: biochemical. In kind it is biochemical.
Sequence of Variant PPO Enzyme R128A, F420V (Amaranthus PPO2) (Q0NZW9 1-534 F420V/R128A): as the sequence (Q0NZW9 1-534 L397Q) above, with R128A, Q397L, F420V counted along it
In assay [7] the target is Variant PPO Enzyme F420M (Amaranthus PPO2) (Amaranthus tuberculatus, UniProt Q0NZW9, F420M). The assay can be described thus: biochemical. It is filed as biochemical.
Sequence of Variant PPO Enzyme F420M (Amaranthus PPO2) (Q0NZW9 1-534 F420M): as the sequence (Q0NZW9 1-534 L397Q) above, with Q397L, F420M counted along it
The target in assay [8] is Variant PPO Enzyme R128A, F420M (Amaranthus PPO2) (Amaranthus tuberculatus, UniProt Q0NZW9, F420M/R128A). In kind it is biochemical.
Sequence of Variant PPO Enzyme R128A, F420M (Amaranthus PPO2) (Q0NZW9 1-534 F420M/R128A): as the sequence (Q0NZW9 1-534 L397Q) above, with R128A, Q397L, F420M counted along it
For assay [9], the target named is Variant PPO Enzyme L397E, F420M (Amaranthus PPO2) (Amaranthus tuberculatus, UniProt Q0NZW9, F420M/L397E). It is filed as biochemical.
Sequence of Variant PPO Enzyme L397E, F420M (Amaranthus PPO2) (Q0NZW9 1-534 F420M/L397E): as the sequence (Q0NZW9 1-534 L397Q) above, with Q397E, F420M counted along it
[10] abbreviates: read-out: Variant PPO Enzyme IC50.

Values joined by “and” are separate entries in the source; they are usually repeats but may differ in a detail not shown here. Equal values may be shown once. Read-outs that look alike come from different tables or passages of the source.

Sequence of Variant PPO Enzyme L397Q, F420V (Amaranthus PPO2) (Q0NZW9 1-534 F420V/L397Q): as the sequence (Q0NZW9 1-534 L397Q) above, with F420V counted along it
Sequence of Variant PPO Enzyme F420V (Amaranthus PPO2) (Q0NZW9 1-534 F420V): as the sequence (Q0NZW9 1-534 L397Q) above, with Q397L, F420V counted along it
Sequence of Variant PPO Enzyme L397Q, F420M (Amaranthus PPO2) (Q0NZW9 1-534 F420M/L397Q): as the sequence (Q0NZW9 1-534 L397Q) above, with F420M counted along it

`CCOC(=O)COc1ncccc1Oc1cc(-n2c(=O)cc(C(F)(F)F)n(C)c2=O)c(F)cc1Cl` [Uracilpyridine 1, ethyl 2-[[3-[2-chloro-4-fluoro-5-[3-methyl-2,6-dioxo-4-(trifluoromethyl)pyrimiclin-1-yl]phenoxy]-2-pyridyl]oxy]acetate]: the IC50 is 66.4 nM in assay [1]; 429 nM in [2]; 2260 nM in assay [3]; 2.38 nM in assay [5]; 162 nM and 280 nM in [6] (setting [10]); 38.1 nM and 46.9 nM in [7] (setting [10]). For the same compound, in assay [8], inhibition was half-maximal at 61.6 nM (IC50). For the same compound, the “Tolerance Factor” value in assay [4] (construct AMATU_PPO2_F420M (Amaranthus tuberculatus), in comparison to wild type plants) stood at 110; in [4] (construct AMATU_PPO2_L397D (Amaranthus tuberculatus), in comparison to wild type plants), 50; in assay [4] (construct AMATU_PPO2_L397D_F420V (Amaranthus tuberculatus), in comparison to wild type plants), 41; in assay [4] (construct AMATU_PPO2_R128A_F420M (Amaranthus tuberculatus), in comparison to wild type plants), 50; in [4] (construct AMATU_PPO2_R128A_F420V (Amaranthus tuberculatus), in comparison to wild type plants), 75; in assay [4] (construct AMATU_PPO2_WT (Amaranthus tuberculatus), growth inhibition in comparison to wild type plants), 6.
In the case of `CCOC(=O)COc1ncccc1Oc1nc(-n2c(=O)cc(C(F)(F)F)n(C)c2=O)c(F)cc1Cl` [Uracilpyridine 2, ethyl 2-[[3-[[3-chloro-5-fluoro-6-[3-methyl-2,6-dioxo-4-(trifluoromethyl)pyrimidin-1-yl]-2-pyridyl]oxy]-2-pyridyl]oxy]acetate], the results for the half-maximal inhibitory concentration (IC50) in assay [6], in [7] and in [8] were 149 nM, 45.7 nM and 97.4 nM, respectively.
Turning to `CCOC(=O)COc1ccccc1Oc1nc(-n2c(=O)cc(C(F)(F)F)n(C)c2=O)c(F)cc1Cl` [Uracilpyridine 4, ethyl 2-[2-[[3-chloro-5-fluoro-6-[3-methyl-2,6-dioxo-4-(trifluoromethyl)pyrimidin-1-yl]-2-pyridyl]oxy]phenoxy]acetate], half-maximal inhibition in assay [8] (IC50) required 69.4 nM.
For `Cn1c(C(F)(F)F)cc(=O)n(-c2nc(Oc3ccccc3OCC(=O)NS(C)(=O)=O)c(Cl)cc2F)c1=O` [Uracilpyridine 10, 2-[2-[[3-chloro-5-fluoro-6-[3-methyl-2,6-dioxo-4-(trifluoromethyl)pyrimidin-1-yl]-2-pyridyl]oxy]phenoxy]-N-methylsulfonyl-acetamide], the figures for the IC50 in assay [8] and in assay [9] were 1670 nM and 6510 nM, respectively.
As to `CCOC(=O)COc1ccccc1Oc1nc(-n2c(=O)c(C)c(C(F)(F)F)n(C)c2=O)c(F)cc1Cl` [Uracilpyridine 12, ethyl 2-[2-[[3-chloro-6-[3,5-dimethyl-2,6-dioxo-4-(trifluoromethyl)pyrimidin-1-yl]-5-fluoro-2-pyridyl]oxy]phenoxy]acetate], half-maximal inhibition in [8] (IC50) required 114 nM.
The compound `C=CCOC(=O)COc1ncccc1Oc1nc(-n2c(=O)cc(C(F)(F)F)n(C)c2=O)c(F)cc1Cl` [Uracilpyridine 13, allyl 2-[[3-[[3-chloro-5-fluoro-6-[3-methyl-2,6-dioxo-4-(trifluoromethyl)pyrimidin-1-yl]-2-pyridyl]oxy]-2-pyridyl]oxy]acetate] gave a half-inhibitory concentration (IC50) in assay [8] of 91.8 nM.
`C#CCOC(=O)COc1ncccc1Oc1nc(-n2c(=O)cc(C(F)(F)F)n(C)c2=O)c(F)cc1Cl` [Uracilpyridine 14, prop-2-ynyl 2-[[3-[[3-chloro-5-fluoro-6-[3-methyl-2,6-dioxo-4-(trifluoromethyl)pyrimidin-1-yl]-2-pyridyl]oxy]-2-pyridyl]oxy]acetate] displayed an IC50 in [8] of 158 nM.
With `Cn1c(C(F)(F)F)cc(=O)n(-c2nc(Oc3cccnc3OCC(=O)OCC3CC3)c(Cl)cc2F)c1=O` [Uracilpyridine 15, cyclopropylmethyl 2-[[3-[[3-chloro-5-fluoro-6-[3-methyl-2,6-dioxo-4-(trifluoromethyl)pyrimidin-1-yl]-2-pyridyl]oxy]-2-pyridyl]oxy]acetate], in assay [8], the IC50 was 42.9 nM.
The same measure, in the same setting: then `Cn1c(C(F)(F)F)cc(=O)n(-c2nc(Oc3cccnc3OCC(=O)OCC(F)F)c(Cl)cc2F)c1=O` [Uracilpyridine 16, 2,2-difluoroethyl 2-[[3-[[3-chloro-5-fluoro-6-[3-methyl-2,6-dioxo-4-(trifluoromethyl)pyrimidin-1-yl]-2-pyridyl]oxy]-2-pyridyl]oxy]acetate], with 89 nM; and `CC(C)COC(=O)COc1ncccc1Oc1nc(-n2c(=O)cc(C(F)(F)F)n(C)c2=O)c(F)cc1Cl` [Uracilpyridine 17, isobutyl 2-[[3-[[3-chloro-5-fluoro-6-[3-methyl-2,6-dioxo-4-(trifluoromethyl)pyrimidin-1-yl]-2-pyridyl]oxy]-2-pyridyl]oxy]acetate], with 46.1 nM.
`CCOC(=O)COC(=O)COc1ncccc1Oc1nc(-n2c(=O)cc(C(F)(F)F)n(C)c2=O)c(F)cc1Cl` [Uracilpyridine 18, (2-ethoxy-2-oxo-ethyl) 2-[[3-[[3-chloro-5-fluoro-6-[3-methyl-2,6-dioxo-4-(trifluoromethyl)pyrimidin-1-yl]-2-pyridyl]oxy]-2-pyridyl]oxy]acetate] yielded an IC50 in assay [8] of 116 nM.
For the compound `COCCOC(=O)COc1ncccc1Oc1nc(-n2c(=O)cc(C(F)(F)F)n(C)c2=O)c(F)cc1Cl` [Uracilpyridine 19, 2-methoxyethyl 2-[[3-[[3-chloro-5-fluoro-6-[3-methyl-2,6-dioxo-4-(trifluoromethyl)pyrimidin-1-yl]-2-pyridyl]oxy]-2-pyridyl]oxy]acetate], in assay [8], the 50% inhibitory concentration (IC50) amounted to 125 nM.

For orientation: IC50 means the midpoint of a concentration-inhibition curve.
